Data: PubChem BioAssay (NCI)
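Grown in 96-well plates, cells were treated for 48 hours with each compound at five concentrations. Insufficient inhibition: endpoint recorded as highest concentration tested. TGI: concentration producing complete growth inhibition.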

Assays:
Experiment in all cases: NCI anticancer screen, dose series, 48 h
[1] = tested on: DMS 114 small cell lung
[2] = tested on: XF 498 CNS
[3] = tested on: SNB-78 CNS
[4] = tested on: M19-MEL melanoma
[5] = tested on: DMS 273 small cell lung
[6] = tested on: HOP-18 NSCLC
[7] = tested on: KM20L2 colon

SMILES	TGI [1] [µM]	TGI [2] [µM]	TGI [3] [µM]	TGI [4] [µM]	TGI [5] [µM]	TGI [6] [µM]	TGI [7] [µM]
CN(CCCCN)c1ccc2c(=O)[nH][nH]c(=O)c2c1	> 100	> 100	> 100	> 37	> 100	> 100	
COc1cc(CC2C(=O)OCC2[C@@H](OC(C)=O)c2ccc3c(c2)OCO3)c(Br)c(OC)c1OC (stereo partly drawn)	> 100	> 100		> 100	> 100	> 100	> 100
COc1cc(=O)oc(/C=C/CO)c1C	> 100	> 100		> 100	> 100	> 100	> 100
COC(=O)C1=Cc2cn(S(=O)(=O)c3ccc(C)cc3)c3cccc(c23)C(C=C(C)C)N1C(C)=O (stereo not drawn)	> 100	> 100	> 100	> 100	> 100	> 100	> 100
C=CCn1c(=O)c(C(=O)NC(=O)OCC)cn(C2CCCCC2)c1=O	> 100	> 100	> 100		> 100	> 100	> 100
Cc1cc(C)c(C2=NO[C@@H]3C(=O)N(c4ccc(Cc5ccc(N6C(=O)[C@H]7C(c8c(C)cc(C)cc8C)=NO[C@H]7C6=O)cc5)cc4)C(=O)[C@H]23)c(C)c1	> 100	> 100	> 100	> 100	> 100	> 100	> 100
COc1ccc(N2C(=O)C3C=CC(n4[nH]c(=O)n(Cc5ccccc5)c4=O)CC3C2=O)cc1 (stereo not drawn)	> 100	> 100	> 100	> 100	> 100	> 100	> 100
N/C(=N/N=C/c1cccc(F)c1)NO	84.7	> 100	> 100	> 100	> 100	> 100	> 100
COc1cc(CC(=O)c2cc3c(cc2-c2ccccc2)OCO3)cc(OC)c1OC	> 100	77.3	> 100		> 100	> 100	> 100
